Results: ChEMBL document CHEMBL2177054, “Rational design of conformationally constrained cyclopentapeptide antagonists for C-x-C chemokine receptor 4 (CXCR4)” (J Med Chem, 2012)

Biological target: C-X-C chemokine receptor type 4 (Homo sapiens, UniProt P61073)
Assay: Antagonist activity against human CXCR4 expressed in COS7 cells assessed as inhibition of CXCL12-induced myo-[3H]inositol production by scintillation counting
Type: functional, cell-based, COS-7

Sequence of C-X-C chemokine receptor type 4 (P61073 whole entry): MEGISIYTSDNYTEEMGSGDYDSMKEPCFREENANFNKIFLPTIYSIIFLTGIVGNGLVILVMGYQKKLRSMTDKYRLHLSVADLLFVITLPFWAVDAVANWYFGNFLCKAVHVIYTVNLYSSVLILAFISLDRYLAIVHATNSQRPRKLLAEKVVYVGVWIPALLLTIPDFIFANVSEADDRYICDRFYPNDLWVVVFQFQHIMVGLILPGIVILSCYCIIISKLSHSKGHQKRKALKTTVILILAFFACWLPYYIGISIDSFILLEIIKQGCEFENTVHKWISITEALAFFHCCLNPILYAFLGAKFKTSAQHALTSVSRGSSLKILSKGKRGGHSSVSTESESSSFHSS

EC50 | SMILES
36 µM | N=C(N)NCCC[C@@H]1NC(=O)CNC(=O)[C@@H](Cc2ccc(O)cc2)NC(=O)CNC(=O)[C@H](Cc2ccc3ccccc3c2)NC1=O
0.56 µM | N=C(N)NCCC[C@@H]1NC(=O)C2(CCNCC2)NC(=O)[C@@H](Cc2ccc(O)cc2)NC(=O)CNC(=O)[C@H](Cc2ccc3ccccc3c2)NC1=O
5.4 µM | N=C(N)NCCC[C@@H]1NC(=O)C2(CCCCC2)NC(=O)[C@@H](Cc2ccc(O)cc2)NC(=O)CNC(=O)[C@H](Cc2ccc3ccccc3c2)NC1=O
0.26 µM | N=C(N)NCCC[C@@H]1NC(=O)C2(CCN(C(=N)N)CC2)NC(=O)[C@@H](Cc2ccc(O)cc2)NC(=O)CNC(=O)[C@H](Cc2ccc3ccccc3c2)NC1=O
3.6 µM | CC1(C)NC(=O)[C@@H](Cc2ccc(O)cc2)NC(=O)CNC(=O)[C@H](Cc2ccc3ccccc3c2)NC(=O)[C@H](CCCNC(=N)N)NC1=O
2.9 µM | N=C(N)NCCC[C@@H]1NC(=O)[C@H](CCCNC(N)=O)NC(=O)[C@@H](Cc2ccc(O)cc2)NC(=O)CNC(=O)[C@H](Cc2ccc3ccccc3c2)NC1=O
15 µM | N=C(N)NCCC[C@@H]1NC(=O)[C@H](Cc2ccc(N)cc2)NC(=O)[C@@H](Cc2ccc(O)cc2)NC(=O)CNC(=O)[C@H](Cc2ccc3ccccc3c2)NC1=O
> 100 µM | NC(=O)NCCC[C@@H]1NC(=O)[C@H](CCCNC(N)=O)NC(=O)[C@@H](Cc2ccc(O)cc2)NC(=O)CNC(=O)[C@H](Cc2ccc3ccccc3c2)NC1=O
0.68 µM | N=C(N)NCCC[C@@H]1NC(=O)[C@H](Cc2ccc(NC(=N)N)cc2)NC(=O)[C@@H](Cc2ccc(O)cc2)NC(=O)CNC(=O)[C@H](Cc2ccc3ccccc3c2)NC1=O
> 100 µM | N=C(N)NCCC[C@@H]1NC(=O)[C@@H](Cc2ccc(O)cc2)NC(=O)CNC(=O)[C@H](Cc2ccc3ccccc3c2)NC(=O)[C@H](CCCNC(N)=O)NC1=O
7.2 µM | N=C(N)NCCC[C@@H]1NC(=O)[C@H](Cc2ccccc2)NC(=O)[C@@H](Cc2ccc(O)cc2)NC(=O)CNC(=O)[C@H](Cc2ccc3ccccc3c2)NC1=O
